Assay results published in patent US12122750B2, “AT2R antagonists and uses thereof” (Eli Lilly and Company, priority 2022, dated 2024).

Columns and labels:
[1] = Plasma concentration of test compound in the receptor occupancy study; type: in vivo, Sprague Dawley rats; details: rat
Description: Twenty male Sprague Dawley rats (140-150 gms, Envigo) were maintained under controlled laboratory conditions on a 12 hr light cycle with ad lib access to food and water. On the morning of the experiment, rats were orally dosed with vehicle (1% (w/v) hydroxyethylcellulose, 0.25% (w/v) polysorbate 80, 0.05% (v/v) antifoam 1510-US in purified water) or appropriate doses of test compound (5 mL/kg, n=4 rats/group) using the same vehicle. Following a pre-determined survival time, plasma and adrenals were collected and frozen at −80° C. until analyzed. Frozen 20 μm sections of an adrenal from each animal were collected onto gelatin-coated slides and stored at −80° C. Autoradiography to detect AT2R occupancy (RO) was conducted under cold conditions using methods modified from F. M. J. Heemskerk, et al, Brain Research 677 (1995) 29-38. Total binding was defined by 0.3 nM ^125I-CGP42112 (selective AT2R agonist, Perkin Elmer, Inc) with the addition of 10 μM unlabeled AngII used to define non-specific binding. Following exposure to a phosphoimager plate (BAS TR2025, GE Healthcare), the bound radioactivity is calculated with use of MCID software (Imaging Research, Inc) and calibrated ^125I standards (American Radiolabeled Chemicals, Inc). The specific ligand binding for each animal is calculated by subtracting the non-specific binding from the total bound.

[2] = target: recombinant human angiotensin-II receptor subtype 2 (hAT2R) (Homo sapiens (Human), UniProt P50052); assay: Competitive radioligand binding assay (SPA), hAT2R HEK293 membranes; details: [125I]-Tyr4-Angiotensin-II, read-out: AT2R Ki
How it was run: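 SPA competition binding on membranes from HEK293 cells stably transfected with hAT2R (0.25 μg/well, with 0.1 mg/well PVT-WGA beads) in 50 mM Tris-HCl pH 7.5, 150 mM NaCl, 0.1% fatty-acid-free BSA. Ten-point four-fold dilution curves ran from 50 μM top final concentration. Bound radioactivity was counted (CPM) after 10 h at room temperature.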

Sequence of recombinant human angiotensin-II receptor subtype 2 (hAT2R) (P50052 whole entry): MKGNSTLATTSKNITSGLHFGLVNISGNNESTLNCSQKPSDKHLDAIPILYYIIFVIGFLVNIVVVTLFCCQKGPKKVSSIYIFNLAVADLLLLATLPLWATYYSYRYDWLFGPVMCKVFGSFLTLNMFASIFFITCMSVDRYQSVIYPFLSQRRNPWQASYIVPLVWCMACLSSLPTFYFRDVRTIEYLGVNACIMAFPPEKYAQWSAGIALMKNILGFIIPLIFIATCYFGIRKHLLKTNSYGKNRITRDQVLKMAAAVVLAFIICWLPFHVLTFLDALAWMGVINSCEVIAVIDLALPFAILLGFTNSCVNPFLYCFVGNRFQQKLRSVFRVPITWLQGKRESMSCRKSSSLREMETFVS

[plasma, free, nM] ([1]; oral dose 0.3 mg/kg) [nM] | [plasma, free, nM] ([1]; oral dose 1 mg/kg) [nM] | [plasma, free, nM] ([1]; oral dose 3 mg/kg) [nM] | [plasma, free, nM] ([1]; oral dose 10 mg/kg) [nM] | Ki [2] [nM] | [plasma, free, nM] ([1]; oral dose 0.01 mg/kg) [nM] | [plasma, free, nM] ([1]; oral dose 0.03 mg/kg) [nM] | [plasma, free, nM] ([1]; oral dose 0.1 mg/kg) [nM] | Compound
0.482 | 1.74 | 5.99 | 15.8 | 5.36 | – | – | – | O=C(N1CCC(CC(=O)N(c2ccccc2)c2ccccc2)(C(=O)O)CC1)N1CCc2ccccc21 [Example 3, 1-(indoline-1-carbonyl)-4-[2-oxo-2-(N-phenylanilino)ethyl]piperidine-4-carboxylic acid]
– | 2.57 | – | – | 9.59 | 0.0298 | 0.224 | 0.476 | CN(C(=O)N1CCC(CC(=O)N(c2ccccc2)C(C2CC2)C2CC2)(C(=O)O)CC1)c1ccc(F)cc1 [Example 18, 4-[2-[N-(dicyclopropylmethyl)anilino]-2-oxo-ethyl]-1-[(4-fluorophenyl)-methyl-carbamoyl]piperidine-4-carboxylic acid]
